From patent US20260098053A1, “COMPOSITIONS AND METHODS FOR TREATING CNS DISORDERS” (SAGE THERAPEUTICS, INC., priority 2019, published 2026)

Target: [35S]-TBPS binding, rat brain cortical membranes
Assay: Steroid inhibition of [35S]-TBPS binding
Conditions: Table 4, 3 nM [35S]-TBPS, in the presence of 5 mM GABA, read-out: TBPS IC50
Procedure: [35S]-t-Butylbicyclophosphorothionate (TBPS) binding assays using rat brain cortical membranes in the presence of 5 mM GABA has been described (Gee et al, J. Pharmacol. Exp. Ther. 1987, 241, 346-353; Hawkinson et al, Mol. Pharmacol. 1994, 46, 977-985; Lewin, A. H et al., Mol. Pharmacol. 1989, 35, 189-194).
Briefly, cortices are rapidly removed following decapitation of carbon dioxide-anesthetized Sprague-Dawley rats (200-250 g). The cortices are homogenized in 10 volumes of ice-cold 0.32 M sucrose using a glass/teflon homogenizer and centrifuged at 1500×g for 10 min at 4° C. The resultant supernatants are centrifuged at 10,000×g for 20 min at 4° C. to obtain the P2 pellets. The P2 pellets are resuspended in 200 mM NaCl/50 mM Na—K phosphate pH 7.4 buffer and centrifuged at 10,000×g for 10 min at 4° C. This washing procedure is repeated twice and the pellets are resuspended in 10 volumes of buffer. Aliquots ([…]) of the membrane suspensions are incubated with 3 nM [^35S]-TBPS and […] aliquots of test drug dissolved in dimethyl sulfoxide (DMSO) (final 0.5%) in the presence of 5 mM GABA. The incubation is brought to a final volume of 1.0 mL with buffer. Nonspecific binding is determined in the presence of […] and ranged from 15 to 25%. Following a 90 min incubation at room temp, the assays are terminated by filtration through glass fiber filters (Schleicher and Schuell No. 32) using a cell harvester (Brandel) and rinsed three times with ice-cold buffer. Filter bound radioactivity is measured by liquid scintillation spectrometry. Non-linear curve fitting of the overall data for each drug averaged for each concentration is done using Prism (GraphPad). […] The concentration of test compound producing 50% inhibition (IC50) of specific binding and the maximal extent of inhibition (Imax) are determined for the individual experiments with the same model used for the overall data and then the means±SEM.s of the individual experiments are calculated.
Various compounds are or can be screened to determine their potential as modulators of [^35S]-TBPS binding in vitro. These assays are or can be performed in accordance with the above

Row | SMILES | IC50
1 | COC[C@]1(O)CC[C@H]2CC[C@@H]3[C@H](CC[C@]4(C)[C@@H](C(=O)Cn5cc(C#N)cn5)CCC[C@@H]34)[C@H]2CC1 [Example 46, 1-(2-((1S,4aS,4bR,6aR,9S,11aS,11bR,13aS)-9-hydroxy-9-(methoxymethyl)-13a-methyloctadecahydro-1H-cyclohepta[a]phenanthren-1-yl)-2-oxoethyl)-1H-pyrazole-4-carbonitrile] | 100 to 1000 nM
2 | CC[C@]1(O)CC[C@H]2CC[C@@H]3[C@H](CC[C@]4(C)[C@H](C(C)=O)CCC[C@@H]34)[C@H]2CC1 [Example 47, 1-((1R,4aS,4bR,6aR,9S,11aS,11bR,13aS)-9-ethyl-9-hydroxy-13a-methyloctadecahydro-1H-cyclohepta[a]phenanthren-1-yl)ethanone] | > 1000 nM
3 | CC[C@]1(O)CC[C@H]2CC[C@@H]3[C@H](CC[C@]4(C)[C@H](C(=O)Cn5cc(C#N)cn5)CCC[C@@H]34)[C@H]2CC1 [Example 48, 1-(2-((1R,4aS,4bR,6aR,9S,11aS,11bR,13aS)-9-ethyl-9-hydroxy-13a-methyloctadecahydro-1H-cyclohepta[a]phenanthren-1-yl)-2-oxoethyl)-1H-pyrazole-4-carbonitrile] | > 1000 nM
4 | CC[C@]1(O)CC[C@H]2CC[C@@H]3[C@H](CC[C@]4(C)[C@@H](C(C)=O)CCC[C@@H]34)[C@H]2CC1 [Example 49, 1-((1S,4aS,4bR,6aR,9S,11aS,11bR,13aS)-9-ethyl-9-hydroxy-13a-methyloctadecahydro-1H-cyclohepta[a]phenanthren-1-yl)ethanone] | > 1000 nM
5 | CC[C@]1(O)CC[C@H]2CC[C@@H]3[C@H](CC[C@]4(C)[C@@H](C(=O)Cn5cc(C#N)cn5)CCC[C@@H]34)[C@H]2CC1 [Example 50] | 100 to 1000 nM
6 | C[C@]1(O)CC[C@H]2CC[C@@H]3[C@H](CC[C@]4(C)[C@@H](C(=O)CCn5cc(C#N)cn5)CCC[C@@H]34)[C@H]2CC1 [Example 51, 1-(3-((1S,4aS,4bR,6aR,9S,11aS,11bR,13aS)-9-hydroxy-9,13a-dimethyloctadecahydro-1H-cyclohepta[a]phenanthren-1-yl)-3-oxopropyl)-1H-pyrazole-4-carbonitrile] | 100 to 1000 nM
7 | C[C@]1(O)CC[C@H]2CC[C@@H]3[C@H](CC[C@]4(C)[C@@H](C(=O)Cn5cc(C#N)cn5)CCC[C@@H]34)[C@@]2(C)CC1 [Example 52, 1-(2-((1S,4aS,4bR,6aR,9S,11aS,11bS,13aS)-9-hydroxy-9,11a,13a-trimethyloctadecahydro-1H-cyclohepta[a]phenanthren-1-yl)-2-oxoethyl)-1H-pyrazole-4-carbonitrile] | 100 to 1000 nM
8 | CC(=O)[C@H]1CCC[C@H]2[C@@H]3CC[C@@H]4CC[C@](C)(O)CC[C@]4(C)[C@H]3CC[C@]12C [Example 53, 1-((1S,4aS,4bR,6aR,9S,11aS,11bS,13aS)-9-hydroxy-9,11a,13a-trimethyloctadecahydro-1H-cyclohepta[a]phenanthren-1-yl)ethanone] | > 1000 nM
9 | C[C@]1(O)CC[C@@H]2CC[C@@H]3[C@H](CC[C@]4(C)[C@@H](C(=O)CCn5cc(C#N)cn5)CCC[C@@H]34)[C@@]2(C)CC1 [Example 54, 1-(3-((1S,4aS,4bR,6aS,9S,11aS,11bS,13aS)-9-hydroxy-9,11a,13a-trimethyloctadecahydro-1H-cyclohepta[a]phenanthren-1-yl)-3-oxopropyl)-1H-pyrazole-4-carbonitrile] | 100 to 1000 nM
10 | COC[C@]1(O)CC[C@H]2CC[C@@H]3[C@H](CC[C@]4(C)[C@@H](C(=O)Cn5cc(C#N)cn5)CCC[C@@H]34)[C@@]2(C)CC1 [Example 55, 1-(2-((1S,4aS,4bR,6aR,9S,11aS,11bS,13aS)-9-hydroxy-9-(methoxymethyl)-11a,13a-dimethyloctadecahydro-1H-cyclohepta[a]phenanthren-1-yl)-2-oxoethyl)-1H-pyrazole-4-carbonitrile] | 100 to 1000 nM
11 | COC[C@]1(O)CC[C@@H]2CC[C@@H]3[C@H](CC[C@]4(C)[C@@H](C(=O)Cn5cc(C#N)cn5)CCC[C@@H]34)[C@@]2(C)CC1 [Example 56, 1-(2-((1S,4aS,4bR,6aS,9S,11aS,11bS,13aS)-9-hydroxy-9-(methoxymethyl)-11a,13a-dimethyloctadecahydro-1H-cyclohepta[a]phenanthren-1-yl)-2-oxoethyl)-1H-pyrazole-4-carbonitrile] | 100 to 1000 nM
12 | CC(=O)[C@H]1CCC[C@H]2[C@@H]3CC=C4CC[C@](C)(O)CC[C@]4(C)[C@H]3CC[C@]12C [Example 57, 1-((1S,4aS,4bS,9S,11aR,11bS,13aS)-9-hydroxy-9,11a,13a-trimethyl-2,3,4,4a,4b,5,7,8,9,10,11,11a,11b,12,13,13a-hexadecahydro-1H-cyclohepta[a]phenanthren-1-yl)ethanone] | < 100 nM
13 | C[C@]1(O)CCC2=CC[C@H]3[C@@H]4CCC[C@H](C(=O)Cn5cc(C#N)cn5)[C@@]4(C)CC[C@@H]3[C@@]2(C)CC1 [Example 58, 1-(2-((1S,4aS,4bS,9S,11aR,11bS,13aS)-9-hydroxy-9,11a,13a-trimethyl-2,3,4,4a,4b,5,7,8,9,10,11,11a,11b,12,13,13a-hexadecahydro-1H-cyclohepta[a]phenanthren-1-yl)-2-oxoethyl)-1H-pyrazole-4-carbonitrile] | < 100 nM
14 | CC(=O)[C@H]1CCCC[C@H]2[C@@H]3CC[C@@H]4C[C@](C)(O)CCC[C@]4(C)[C@H]3CC[C@]12C [Example 59, 1-((1S,5aS,5bR,7aR,9R,12aS,12bS,14aS)-9-hydroxy-9,12a,14a-trimethylicosahydrodicyclohepta[a,f]naphthalen-1-yl)ethanone] | 100 to 1000 nM
15 | C[C@@]1(O)CCC[C@@]2(C)[C@H](CC[C@@H]3[C@@H]2CC[C@]2(C)[C@@H](C(=O)Cn4cc(C#N)cn4)CCCC[C@@H]32)C1 [Example 60] | < 100 nM
16 | C[C@@]1(O)CCC[C@@]2(C)[C@H](CC[C@@H]3[C@@H]2CC[C@]2(C)[C@H](C(=O)Cn4cc(C#N)cn4)CCCC[C@@H]32)C1 [Example 61, 1-(2-((1R,5aS,5bR,7aR,9R,12aS,12bS,14aS)-9-hydroxy-9,12a,14a-trimethylicosahydrodicyclohepta[a,f]naphthalen-1-yl)-2-oxoethyl)-1H-pyrazole-4-carbonitrile] | 100 to 1000 nM
17 | Cc1nnn(CC(=O)[C@H]2CCCC[C@H]3[C@@H]4CC[C@@H]5C[C@](C)(O)CCC[C@]5(C)[C@H]4CC[C@]23C)n1 [Example 62, 1-((1S,5aS,5bR,7aR,9R,12aS,12bS,14aS)-9-hydroxy-9,12a,14a-trimethylicosahydrodicyclohepta[a,f]naphthalen-1-yl)-2-(5-methyl-2H-tetrazol-2-yl)ethanone] | < 100 nM
18 | Cc1nnnn1CC(=O)[C@H]1CCCC[C@H]2[C@@H]3CC[C@@H]4C[C@](C)(O)CCC[C@]4(C)[C@H]3CC[C@]12C [Example 63, 1-((1S,5aS,5bR,7aR,9R,12aS,12bS,14aS)-9-hydroxy-9,12a,14a-trimethylicosahydrodicyclohepta[a,f]naphthalen-1-yl)-2-(5-methyl-1H-tetrazol-1-yl)ethanone] | 100 to 1000 nM
